Where two headings read alike, the source gives them in different places.
How the values were obtained:
[1] = target: T1, rI-FABP (SEQ ID NO: 3) variant L2P14F7 MGI KR14 K27K, MGI - KR14 - 18G 27K 31M 72A (Rattus norvegicus, UniProt P02693, G32M/K101R/K126R/K17R/K21R/K30R/K38R/K47R/K51R/K89R/K8R/K93R/K95R/L73A/M19G); experiment: bilirubin binding to L2P14F7 MGI KR14 K27K probe; settings: Table 6, acrylodan
T1 construct: made in house
Method: (§1) Also described are analytical/mathematical methods for calibrating and using the bilirubin probes. Bilirubin probes are calibrated to determine their binding affinity for bilirubin (dissociation constant Kd) under conditions, such as temperature, pH and solution composition, that correspond to samples in which it is desired to know the unbound bilirubin concentration. Binding isotherms are performed in aqueous buffer by measuring the change in fluorescence of the bilirubin probes in response to increasing bilirubin concentrations (“titration data”). The set of fluorescence responses at each bilirubin concentration are fitted with an appropriate equation (“calibration equation”) that correctly describes the fluorescence response as a function of the bilirubin concentration, the probe concentration, specific spectroscopic characteristics, and the Kd.

[2] = target: T2, rI-FABP (SEQ ID NO: 3) variant L24P19 C7 K27A, 14R 18L 27A 38V 60R 73F 106C 115R 117D (Rattus norvegicus, UniProt P02693, A74F/K28A/L39V/L73A/M19L/Q116R/R107C/V61R/Y118D/Y15R); experiment: bilirubin binding to L24P19C7 K27A probe; settings: Table 5, acrylodan
T2 construct: made in house
T2 sequence (P02693 with tags, fused parts or gaps Y15R/M19L/K28A/L39V/V61R/L73A/A74F/R107C/Q116R/Y118D): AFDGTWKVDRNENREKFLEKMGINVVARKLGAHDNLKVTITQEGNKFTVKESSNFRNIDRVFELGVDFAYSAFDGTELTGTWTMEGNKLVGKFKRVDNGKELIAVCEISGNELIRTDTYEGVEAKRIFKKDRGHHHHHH
Method: as §1

[3] = target: T3, rI-FABP (SEQ ID NO: 3) variant L24P19 C7 K27K 25C, 14R 18L 25C 38V 60R 73F 106C 115R 117D (Rattus norvegicus, UniProt P02693, A74F/L39V/L73A/M19L/Q116R/R107C/V26C/V61R/Y118D/Y15R); experiment: bilirubin binding to L24P19C7 25C probe; settings: Table 5, acrylodan
T3 construct: made in house
T3 sequence (P02693 with tags, fused parts or gaps Y15R/M19L/V26C/L39V/V61R/L73A/A74F/R107C/Q116R/Y118D): as the sequence (P02693 with tags, fused parts or gaps Y15R/M19L/K28A/L39V/V61R/L73A/A74F/R107C/Q116R/Y118D) above, with V25C, A27K counted along it
Method: as §1
. […] The optimal probe performance was obtained with cysteine at positions 25 or 26.

[4] = target: T4, rI-FABP (SEQ ID NO: 3) variant BL22P1 B11 - 24C, MGI - KR14 - 14R 18L 24C 27A 38V 60R 73F 106L 115R 117D (Rattus norvegicus, UniProt P02693, A74F/K101R/K126R/K17R/K21R/K28A/K30R/K38R/K47R/K51R/K89R/K8R/K93R/K95R/L39V/L73A/M19L/N25C/Q116R/R107L/V61R/Y118D/Y15R); type: binding; settings: Table 5, Alexa Fluor 680 C2-maleimide
T4 construct: 6xHis (C); made in house
T4 sequence (P02693 with tags, fused parts or gaps with the stated changes): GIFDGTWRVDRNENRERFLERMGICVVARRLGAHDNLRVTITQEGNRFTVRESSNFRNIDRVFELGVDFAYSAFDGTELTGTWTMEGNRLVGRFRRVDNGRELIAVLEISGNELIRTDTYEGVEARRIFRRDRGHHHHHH
Method: as §1

[5] = target: T5, rI-FABP (SEQ ID NO: 3) variant BL22P1 B11 - 29C, MGI - KR14 - 14R 18L 27A 29C 38V 60R 73F 106L 115R 117D (Rattus norvegicus, UniProt P02693, A74F/K101R/K126R/K17R/K21R/K28A/K30C/K38R/K47R/K51R/K89R/K8R/K93R/K95R/L39V/L73A/M19L/Q116R/R107L/V61R/Y118D/Y15R); type: binding; settings: Table 5, Alexa Fluor 680 C2-maleimide
T5 construct: 6xHis (C); made in house
T5 sequence (P02693 with tags, fused parts or gaps with the stated changes): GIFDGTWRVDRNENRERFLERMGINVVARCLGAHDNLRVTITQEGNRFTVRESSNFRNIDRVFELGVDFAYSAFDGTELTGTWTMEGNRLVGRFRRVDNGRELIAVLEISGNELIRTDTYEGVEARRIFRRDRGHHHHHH
Method: as §1

[6] = target: T6, rI-FABP (SEQ ID NO: 3) variant BL22P1 B11 - 33C, MGI - KR14 - 14R 18L 27A 33C 38V 60R 73F 106L 115R 117D (Rattus norvegicus, UniProt P02693, A74F/H34C/K101R/K126R/K17R/K21R/K28A/K30R/K38R/K47R/K51R/K89R/K8R/K93R/K95R/L39V/L73A/M19L/Q116R/R107L/V61R/Y118D/Y15R); type: binding
T6 construct: 6xHis (C); made in house
T6 sequence (P02693 with tags, fused parts or gaps with the stated changes): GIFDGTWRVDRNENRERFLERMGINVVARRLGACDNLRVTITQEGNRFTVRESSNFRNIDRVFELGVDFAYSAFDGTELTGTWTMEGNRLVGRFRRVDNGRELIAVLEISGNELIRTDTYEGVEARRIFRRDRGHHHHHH
Method: as §1

[7] = target: T7, rI-FABP (SEQ ID NO: 3) variant BL22P1 B11 - 54C, MGI - KR14 - 14R 18L 27A 38V 54C 60R 73F 106L 115R 117D (Rattus norvegicus, UniProt P02693, A74F/K101R/K126R/K17R/K21R/K28A/K30R/K38R/K47R/K51R/K89R/K8R/K93R/K95R/L39V/L73A/M19L/N55C/Q116R/R107L/V61R/Y118D/Y15R); type: binding; settings: Table 5, Alexa Fluor 680 C2-maleimide
T7 construct: 6xHis (C); made in house
T7 sequence (P02693 with tags, fused parts or gaps with the stated changes): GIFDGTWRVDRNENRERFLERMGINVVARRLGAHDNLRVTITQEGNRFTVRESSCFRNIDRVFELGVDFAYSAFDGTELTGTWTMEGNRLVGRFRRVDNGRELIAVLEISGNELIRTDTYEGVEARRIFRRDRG
Method: as §1

[8] = target: T8, rI-FABP (SEQ ID NO: 3) variant BL22P1 B11 - 74C, MGI - KR14 - 14R 18L 27A 38V 60R 73F 74C 106L 115R 117D (Rattus norvegicus, UniProt P02693, A74F/D75C/K101R/K126R/K17R/K21R/K28A/K30R/K38R/K47R/K51R/K89R/K8R/K93R/K95R/L39V/L73A/M19L/Q116R/R107L/V61R/Y118D/Y15R); type: binding; settings: Table 5, Alexa Fluor 680 C2-maleimide
T8 construct: 6xHis (C); made in house
T8 sequence (P02693 with tags, fused parts or gaps with the stated changes): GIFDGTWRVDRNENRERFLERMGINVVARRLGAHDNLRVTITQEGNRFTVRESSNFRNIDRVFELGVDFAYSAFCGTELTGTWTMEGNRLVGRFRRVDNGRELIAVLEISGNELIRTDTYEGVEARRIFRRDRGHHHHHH
Method: as §1

T1 sequence (P02693 with tags, fused parts or gaps with the stated changes): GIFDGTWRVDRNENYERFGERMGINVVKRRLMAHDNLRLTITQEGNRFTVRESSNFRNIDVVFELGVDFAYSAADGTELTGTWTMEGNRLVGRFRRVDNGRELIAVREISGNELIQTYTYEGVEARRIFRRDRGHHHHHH

Kd [1]: 0.084 µM | Kd [2]: 0.021 µM | Kd [3]: 0.019 µM | Kd [4]: 0.072 µM | Kd [5]: 0.118 µM | Kd ([6]; Table 5, Alexa Fluor 680 C2-maleimide): 0.25 µM | Kd ([6]; Table 5, Alexa Fluor 750 C5-maleimide): 0.12 µM | Kd [7]: 0.16 µM | Kd [8]: 0.16 µM
SMILES: C=CC1=C(C)/C(=C/c2[nH]c(Cc3[nH]c(/C=C4\NC(=O)C(C)=C4C=C)c(C)c3CCC(=O)O)c(CCC(=O)O)c2C)NC1=O [bilirubin]
